{
  "source": "patent US20160228670A1",
  "about": "“SYSTEM FOR NITRIC OXIDE INHALATION” (ADVANCED […] (AIT) LTD., priority 2013, published 2016)",
  "origin": "cited, not measured here",
  "note": "Read-outs that look alike come from different tables or passages of the source.",
  "data": [
    {"molecule": "[N]=O", "note": "[NO, nitric oxide]", "values": [
      {"measurement": "t1/2 of NO to NO2", "setting": "NO concentration in air 1 ppm", "value": 3500, "unit": "min"},
      {"measurement": "t1/2 of NO to NO2", "setting": "NO concentration in air 10 ppm", "value": 350, "unit": "min"},
      {"measurement": "t1/2 of NO to NO2", "setting": "NO concentration in air 100 ppm", "value": 35, "unit": "min"},
      {"measurement": "t1/2 of NO to NO2", "setting": "NO concentration in air 1,000 ppm", "value": 3.5, "unit": "min"},
      {"measurement": "t1/2 of NO to NO2", "setting": "NO concentration in air 10,000 ppm", "value": 0.35, "unit": "min"},
      {"measurement": "t1/2 of NO to NO2", "setting": "NO concentration in air 20,000 ppm", "value": 0.175, "unit": "min"}
    ]}
  ]
}
